Data on 7 molecules can be found in patent US11939320B2, “Modulators of the integrated stress pathway” (Calico Life Sciences LLC, priority 2017, dated 2024).

The test system of the experiment is HEK293T cells carrying the ATF4 luciferase reporter. In words: ATF4-Luc assay (in vitro model of VWMD). The experiment is classed as cell-based. The note with it: Homo sapiens, HEK-293T; HEK293T cells with ATF4 5'-UTR firefly luciferase reporter; 1 μg/mL tunicamycin; 7 hours; One Glo luminescence. In short, it runs like this:
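Compound at 200 nM and tunicamycin at 1 μg/mL were given together for 7 h to HEK293T cells stably transduced with an ATF4 5′-UTR-driven firefly luciferase reporter. Read-out by luminescence, reported as EC50.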
Background: Reporter assays use an easily measured gene product as a stand-in for the process of interest.
Consider `O=C(COc1ccc(Cl)c(F)c1)N[C@H]1CC[C@H](C(=O)N(CCO)Cc2ccc(Cl)c(F)c2)CC1` [Compound 181, (1r,4r)-4-[2-(4-chloro-3-fluorophenoxy)acetamido]-N-[(4-chloro-3-fluorophenyl)methyl]-N-(2-hydroxyethyl)cyclohexane-1-carboxamide], for which the EC50 (usually the concentration that produces a half-maximal response) fell in the range of 500 to 2000 nM. Consider `O=C(COc1ccc(Cl)c(Cl)c1)N[C@H]1CC[C@H](C(=O)NCc2cc(CO)ccn2)CC1` [Compound 182, (1r,4r)-4-[2-(3,4-dichlorophenoxy)acetamido]-N-{[4-(hydroxymethyl)pyridin-2-yl]methyl}cyclohexane-1-carboxamide], for which the half-maximal effective concentration (EC50) was above 2000 nM.

Turning to `O=C(COc1ccc(Cl)c(Cl)c1)N[C@H]1CC[C@H](C(=O)NCc2ccc(C(F)(F)F)cn2)CC1` [Compound 183, (1r,4r)-4-[2-(3,4-dichlorophenoxy)acetamido]-N-{[5-(trifluoromethyl)pyridin-2-yl]methyl}cyclohexane-1-carboxamide], the EC50 was below 10 nM. As for `O=C(COc1ccc(Cl)c(Cl)c1)N[C@H]1CC[C@H](C(=O)NCc2ccc(C(F)F)cn2)CC1` [Compound 184, (1r,4r)-4-[2-(3,4-dichlorophenoxy)acetamido]-N-{[5-(difluoromethyl)pyridin-2-yl]methyl}cyclohexane-1-carboxamide], the EC50 is 10 to 50 nM. For the molecule `O=C(COc1ccc(Cl)c(F)c1)N[C@@H]1CC[C@@H](C(=O)NCc2ccc(Cl)c(F)c2)OC1` [Compound 185, (2S,5R)-5-[2-(4-chloro-3-fluorophenoxy)acetamido]-N-[(4-chloro-3-fluorophenyl)methyl]oxane-2-carboxamide], the EC50 fell in the range of 10 to 50 nM. Next, `O=C(COc1ccc(Cl)c(F)c1)N[C@@H]1CC[C@@H](C(=O)NCc2ccc(C(F)(F)F)cn2)OC1` [Compound 186, (2S,5R)-5-[2-(4-chloro-3-fluorophenoxy)acetamido]-N-{[5-(trifluoromethyl)pyridin-2-yl]methyl}oxane-2-carboxamide]: 10 to 50 nM; `O=C(COc1ccc(Cl)c(F)c1)N[C@H]1CC[C@H](C(=O)NCc2ccc(C(F)F)cn2)CC1` [Compound 187, (1r,4r)-4-[2-(4-chloro-3-fluorophenoxy)acetamido]-N-{[5-(difluoromethyl)pyridin-2-yl]methyl}cyclohexane-1-carboxamide]: 10 to 50 nM.
